The structures appear in SMILES notation.

Data on one compound can be found in US20140275511A1, “PURIFICATION OF […]” (priority 2013, published 2014).

Series [1] concerns Valley Fever (coccidioidomycosis). To be noted: mouse, in vivo; cited from earlier work.

`C[C@@H]([C@H](N)C(=O)N[C@H](C(=O)O)[C@H]1O[C@@H](n2ccc(=O)[nH]c2=O)[C@H](O)[C@@H]1O)[C@H](O)c1ccc(O)cn1` [Nikkomycin Z]: the “stability of broth at pH 4” value is recorded as “reasonably stable for at least a week”. Further, the “effectiveness at treating infected animals” value in series [1] is reported as “quite effective at treating infected animals”.
